From patent publication US20230050846A1, “TREATMENT OF HEPATIC AND CARDIOVASCULAR DISORDERS” (LIFESEARCH, priority 2019, published 2023)
Peptide text beside a SMILES is read from it. * marks the point of attachment. Palmitoyl = CCCCCCCCCCCCCCCC(=O)*

Tests used:
HepG2 cells [1] = assay: Cytotoxicity assay (MTT); type: cell-based, human
Experimental: HepG2 cells were seeded in a 96-well plate at a density of 10,000 cells/well in growth medium (DMEM high-glucose, 10% fetal bovine serum). The next day, growth medium was changed and the peptide of formula (I) was added once with ascending dose for 24 h, 48 or 72 h or for 48 h with repeating once in 24 h. Similarly, the peptide of formula (II) was added once with ascending dose for 24 h or 48 h or for 48 h with repeating once in 24 h. Cells were incubated for 4 h with 5 mg/L MTT and 100 μL of DMSO was added in the well. Absorbance was recorded at 570 and 660 nm using the microplate spectrophotometer system (Varioscan flash). Cell viability was calculated by subtracting the 570 nm absorbance to the background measured at 660 nm.

HepG2 cells [2] = assay: Oleate/palmitate-induced steatosis, intracellular triglyceride content; type: cell-based, human; conditions: 1 μM, last 24 h of 48 h oleate/palmitate 0.5 mM (2:1)
Experimental: A solution containing 250 mM palmitate (P0500, Sigma-Aldrich) was first prepared in 0.1 M NaOH at 70 C for 30 min then diluted in DMEM low glucose (D5546, Sigma-Aldrich) containing 10% fatty acid-free BSA (A7030, Sigma-Aldrich) to yield a 10 mM palmitate solution and allowed to dissolve for 30 min at 37° C., filter sterilized and stored in glass vial at −20 C until use. This palmitate stock solution and ready to use oleate solution (03008, Sigma-Aldrich) were used to prepared a 0.5 mM solution at a 2:1 ratio of oleate to palmitate in complete culture medium containing DMEM low glucose, 10% fetal bovine serum, 1% Penicillin-Streptomycin and 1% fatty acid-free BSA.
HepG2 cell were grown in 12-well plates to 60-70% confluence then exposed for 48 h to culture medium (DMEM low glucose, 10% fetal bovine serum, 1% Penicillin-Streptomycin and 1% fatty acid-free BSA) alone or containing 0.5 mM oleate/palmitate mixture (2:1) to induce steatosis. For the last 24 h of the 48 h period, cells were treated with 1 μM of the peptide of formula (I) or the peptide of formula (II).
For measurement of intracellular triglyceride content, cells were washed with PBS and scraped in 5% NP-40 lysis buffer and heated for 10 min at 85° C. Triglycerides were then quantified using triglyceride commercial kit (Biolabo #87319). Values were normalized to protein concentration in cell lysates.

human F1Fo-ATPase = biological target: T1, human F1Fo-ATPase (Homo sapiens, UniProt P06576); assay: Surface plasmon resonance (SPR) binding to purified human F1Fo-ATPase; conditions: SPR single-cycle kinetics; His-tag / biotin variant of peptide immobilized, F1Fo-ATPase as analyte; read-out: KD (affinity between F1Fo-ATPase and immobilized peptide)
T1 construct: Human F1Fo-ATPase was purified from HepG2 cells by immunocapture; endogenous in cells; host or cells: HepG2 cells; complex isolated by immunocapture with anti-ATP synthase antibody 12F4AD8AF8 (#ab109867, Abcam)
Experimental: Surface plasmon resonance (SPR) assays. Binding studies based on SPR technology were performed on a BIAcore T200 optical biosensor instrument (GE Healthcare®, Uppsala, Sweden). The peptide of formula (I) with C-terminal 6×His-tag (Formula (I)-His-tag: CH3CO-[SEQ ID NO: 1]-HHHHHH) and the peptide of formula (II) with C-terminal biotin (Formula (II)-Biotin: CH3CO-[SEQ ID NO: 1]-K-[palmitoyl]-AEEAc-K-[biotinyl]-NH2) were custom-synthesized by BACHEM AG (Bubendorf, Switzerland) with >90% purity in trifluoroacetate salt. Human F1Fo-ATPase was purified from HepG2 cells by immunocapture using mouse monoclonal anti-ATP synthase antibody (12F4AD8AF8, #ab109867, Abcam) according to manufacturer's instructions.
Immobilization of the peptide of formula (I)-6His-tag was performed on a nitrilotriacetic acid (NTA) sensorchip in HBS-P+ buffer (10 mM Hepes pH 7.4, 150 mM NaCl, and 0.05% surfactant P20) (GE Healthcare). To saturate the NTA surface with Ni2^+, flow cells (Fc) were loaded with 0.5 mM NiCl2 solution. The channel Fc1 was left empty and used as a reference surface for nonspecific binding measurements. Formula (I)-6×His was injected in the channel Fc2 at a flow-rate of 5 μL/min and stabilized by amine coupling (Laboratory guideline 29-0057-17 AB). The total amount of immobilized Formula (I)-His-tag was 300-350 resonance units (RU): final concentration 25 μg/mL. […]

Kd (human F1Fo-ATPase)	Compound	cell viability (MTT) (HepG2 cells [1]; 0.1 to 25 μM, single dose 24 or 48 h, or multiple doses at 24 and 48 h)	reduction of fatty acid-induced intracellular accumulation of triglycerides compared to PBS control (HepG2 cells [2])	cell viability (MTT) (HepG2 cells [1]; 0.1 to 50 μM, single dose 24, 48 or 72 h, or multiple doses at 24 and 48 h)
4.45 nM	CCCCCCCCCCCCCCCC(=O)NCCCC[C@H](NC(=O)[C@H](CCC(=O)O)NC(=O)[C@H](CCCNC(=N)N)NC(=O)[C@H](CO)NC(=O)[C@H](CCC(N)=O)NC(=O)[C@H](C)NC(=O)[C@H](CCCNC(=N)N)NC(=O)[C@H](Cc1ccccc1)NC(=O)[C@H](Cc1ccc(O)cc1)NC(=O)[C@H](CCCNC(=N)N)NC(=O)[C@H](CCC(=O)O)NC(=O)[C@H](CCC(=O)O)NC(=O)[C@H](CCC(=O)O)NC(=O)[C@H](C)NC(=O)[C@H](CCC(N)=O)NC(=O)[C@H](CCC(=O)O)NC(=O)[C@H](CCCNC(=N)N)NC(=O)[C@H](CCCCN)NC(=O)CNC(=O)[C@H](Cc1ccccc1)NC(=O)[C@H](C)NC(=O)CNC(=O)CNC(=O)[C@H](C)NC(=O)[C@H](CCC(=O)O)NC(=O)[C@H](CCCNC(=N)N)NC(=O)[C@@H](NC(=O)[C@H](CO)NC(=O)CNC(=O)[C@H](C)NC(=O)CNC(=O)[C@H](CCCNC(=N)N)NC(C)=O)[C@@H](C)CC)C(N)=O [peptide of formula (II), CH3CO-[SEQ ID NO: 1]-K-[palmitoyl]-NH2] (Ac-RGAGSIREAGGAFGKREQAEEERYFRAQSREK(Palmitoyl)-NH2)	no impact	32%	–
19 nM	Ac-RGAGSIREAGGAFGKREQAEEERYFRAQSRE-NH2 [peptide of formula (I), CH3CO-[SEQ ID NO: 1]-NH2]	–	18%	no impact
